Experimental data as given in patent publication US20230355513A1, “PARTICLES INCLUDING CHITOSAN-BILIRUBIN CONJUGATE, AND ORAL PHARMACEUTICAL COMPOSITION INCLUDING SAME” (KOREA ADVANCED INSTITUTE OF SCIENCE AND TECHNOLOGY, priority 2021, published 2023).

System: mouse inflammatory bowel disease model (DSS)
Experiment: Efficacy in mouse inflammatory bowel disease model with 5-ASA control (Example 7)
Type: in vivo
Conditions: 50 mg/kg, compared with the other groups
From the text: As the symptoms of inflammatory bowel disease were aggravated, systemic inflammations may be caused through the release of inflammatory cytokines in the blood, and therefore, an effective anti-inflammatory medicine was thought to inhibit the release of inflammatory substances in the spleen, liver, kidney, or the like to prevent the inflammations, and thus this was investigated.

Compound: Nc1ccc(O)c(C(=O)O)c1 [5-ASA, 5-aminosalicylic acid]
- spleen weight: spleen weight was high
